This note sets out measurements from ChEMBL document CHEMBL5725742, “Imidazopyridazine derivatives as PI3KB inhibitors” (2018).

pKd: −log10 of the molar value. A value given as a limit tells only on which side of the number the result lay.

Assay [1] in a line: (§1) KINOMEscan Enzyme Binding Assays: Kinase enzyme binding affinities of compounds disclosed herein were determined using the KINOMEscan technology performed by DiscoveRx Corporation, San Diego, Calif., USA (www.kinomescan.com).
For assay [2], the target named is T1, Phosphatidylinositol 4,5-bisphosphate 3-kinase catalytic subunit delta isoform (Homo sapiens, UniProt O00329).
T1 sequence (O00329 whole entry): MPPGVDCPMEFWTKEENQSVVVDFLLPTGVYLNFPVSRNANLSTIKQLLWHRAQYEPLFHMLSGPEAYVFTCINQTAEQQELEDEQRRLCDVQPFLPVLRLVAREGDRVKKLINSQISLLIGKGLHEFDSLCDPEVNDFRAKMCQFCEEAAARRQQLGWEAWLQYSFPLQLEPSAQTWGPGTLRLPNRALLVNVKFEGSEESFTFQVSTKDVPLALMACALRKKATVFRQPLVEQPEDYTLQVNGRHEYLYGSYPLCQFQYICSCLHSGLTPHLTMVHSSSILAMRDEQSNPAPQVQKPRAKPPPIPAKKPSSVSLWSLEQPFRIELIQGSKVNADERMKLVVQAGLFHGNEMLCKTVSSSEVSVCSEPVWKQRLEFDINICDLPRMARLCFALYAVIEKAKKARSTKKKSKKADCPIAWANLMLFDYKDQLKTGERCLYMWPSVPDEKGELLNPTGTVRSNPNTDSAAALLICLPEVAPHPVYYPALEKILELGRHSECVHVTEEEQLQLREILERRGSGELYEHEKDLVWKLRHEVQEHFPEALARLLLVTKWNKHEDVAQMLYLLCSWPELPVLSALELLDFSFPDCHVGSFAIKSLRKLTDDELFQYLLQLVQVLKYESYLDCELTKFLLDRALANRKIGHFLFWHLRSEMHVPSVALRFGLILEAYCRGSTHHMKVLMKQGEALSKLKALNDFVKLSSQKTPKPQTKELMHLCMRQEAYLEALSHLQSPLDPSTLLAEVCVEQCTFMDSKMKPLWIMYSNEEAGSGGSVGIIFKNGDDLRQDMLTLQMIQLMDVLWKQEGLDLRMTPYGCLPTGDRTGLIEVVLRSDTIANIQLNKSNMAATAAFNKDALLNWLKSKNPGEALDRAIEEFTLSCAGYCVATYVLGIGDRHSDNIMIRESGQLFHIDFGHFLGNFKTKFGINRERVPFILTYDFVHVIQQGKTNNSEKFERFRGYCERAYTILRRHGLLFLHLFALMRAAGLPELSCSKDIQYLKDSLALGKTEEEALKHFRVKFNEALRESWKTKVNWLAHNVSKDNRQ
The assay is described as §1.

The target in assay [3] is Phosphatidylinositol 4,5-bisphosphate 3-kinase catalytic subunit gamma isoform (Homo sapiens, UniProt P48736). The assay is described as §1.
Phosphatidylinositol 4,5-bisphosphate 3-kinase catalytic subunit gamma isoform, sequence (P48736 whole entry, canonical isoform): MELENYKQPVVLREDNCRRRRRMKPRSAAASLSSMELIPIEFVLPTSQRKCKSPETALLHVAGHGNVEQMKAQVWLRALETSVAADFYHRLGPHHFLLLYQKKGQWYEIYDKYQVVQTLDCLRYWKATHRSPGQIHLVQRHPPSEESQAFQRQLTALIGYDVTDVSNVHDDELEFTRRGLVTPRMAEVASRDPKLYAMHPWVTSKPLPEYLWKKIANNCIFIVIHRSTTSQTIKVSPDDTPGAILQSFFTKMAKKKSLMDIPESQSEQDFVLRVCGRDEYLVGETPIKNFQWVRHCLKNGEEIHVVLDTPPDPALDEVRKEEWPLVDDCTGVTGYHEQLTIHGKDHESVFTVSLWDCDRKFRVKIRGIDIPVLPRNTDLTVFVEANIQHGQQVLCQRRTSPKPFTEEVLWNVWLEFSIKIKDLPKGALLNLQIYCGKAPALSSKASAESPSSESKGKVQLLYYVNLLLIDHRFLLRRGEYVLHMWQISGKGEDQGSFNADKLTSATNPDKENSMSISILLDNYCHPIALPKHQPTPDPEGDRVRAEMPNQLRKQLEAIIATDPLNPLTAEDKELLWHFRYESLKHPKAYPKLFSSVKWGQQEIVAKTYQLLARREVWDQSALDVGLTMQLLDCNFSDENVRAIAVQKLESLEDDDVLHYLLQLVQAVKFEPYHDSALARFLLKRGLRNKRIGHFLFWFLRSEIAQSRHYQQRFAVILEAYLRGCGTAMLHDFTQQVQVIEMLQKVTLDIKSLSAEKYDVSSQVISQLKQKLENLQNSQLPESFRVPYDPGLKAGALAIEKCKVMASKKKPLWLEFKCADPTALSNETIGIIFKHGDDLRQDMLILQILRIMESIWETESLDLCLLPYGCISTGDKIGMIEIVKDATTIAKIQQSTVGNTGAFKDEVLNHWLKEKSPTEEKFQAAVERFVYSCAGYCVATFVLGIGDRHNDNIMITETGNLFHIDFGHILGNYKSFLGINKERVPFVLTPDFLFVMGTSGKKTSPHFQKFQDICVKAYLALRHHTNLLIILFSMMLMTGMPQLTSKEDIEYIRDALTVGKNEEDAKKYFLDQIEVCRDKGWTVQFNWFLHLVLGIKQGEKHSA

The pKd is −log10 of the Kd, conventionally taken in molar units. As to `CC(CO)NCc1c(F)cccc1Cc1c(CO)nc2c(N)cc(N3CCOCC3)nn12` (stereo not given), in assay [1], the pKd was < 4.52.

As to `CCc1c(F)cccc1Cc1c(CNCCO)nc2c(N)cc(N3CCOCC3)nn12`, the figures for the pKd in assay [2] and in assay [3] were 6.37 and 6.14, respectively. As to `Cc1c(Cc2c(CO)nc3c(-c4cnc[nH]4)cc(N4CCOCC4)nn23)cccc1C(F)(F)F`, the pKd in assay [2] was 7.10; in assay [3], 5.75.
